Data published in US20250340574A1, “MODULATORS OF CYSTIC FIBROSIS TRANSMEMBRANE CONDUCTANCE REGULATOR” (Vertex Pharmaceuticals Incorporated, priority 2022, published 2025).
pEC50: −log10 of the molar value. Read-outs that look alike come from different tables or passages of the source. Each block holds one molecule with its values, some of them ahead of it.

Key:
[1] = amide bond, 13-membered ring, CDMT/NMM, DMF
[2] = biological target: T1, CFTR (F508del/MF-HBE cells) (Homo sapiens, UniProt P13569, DEL508-508); assay: Ussing chamber assay of CFTR-mediated short-circuit currents, Assay C (0.026 μM to 25 μM, 6 concentrations); type: cell-based; conditions: with 33 nM potentiator and 18 μM Tezacaftor, 20% human serum; for Emax: read-out: C Max activity (%)
T1 construct: human bronchial epithelial (HBE) cells derived from CF subjects heterozygous for F508del and a minimal function CFTR mutation (F508del/MF-HBE); endogenous in cells; host or cells: Primary human bronchial epithelial cells from CF subjects (F508del/MF genotype), differentiated at an air-liquid interface
T1 sequence (P13569 with tags, fused parts or gaps DEL508-508): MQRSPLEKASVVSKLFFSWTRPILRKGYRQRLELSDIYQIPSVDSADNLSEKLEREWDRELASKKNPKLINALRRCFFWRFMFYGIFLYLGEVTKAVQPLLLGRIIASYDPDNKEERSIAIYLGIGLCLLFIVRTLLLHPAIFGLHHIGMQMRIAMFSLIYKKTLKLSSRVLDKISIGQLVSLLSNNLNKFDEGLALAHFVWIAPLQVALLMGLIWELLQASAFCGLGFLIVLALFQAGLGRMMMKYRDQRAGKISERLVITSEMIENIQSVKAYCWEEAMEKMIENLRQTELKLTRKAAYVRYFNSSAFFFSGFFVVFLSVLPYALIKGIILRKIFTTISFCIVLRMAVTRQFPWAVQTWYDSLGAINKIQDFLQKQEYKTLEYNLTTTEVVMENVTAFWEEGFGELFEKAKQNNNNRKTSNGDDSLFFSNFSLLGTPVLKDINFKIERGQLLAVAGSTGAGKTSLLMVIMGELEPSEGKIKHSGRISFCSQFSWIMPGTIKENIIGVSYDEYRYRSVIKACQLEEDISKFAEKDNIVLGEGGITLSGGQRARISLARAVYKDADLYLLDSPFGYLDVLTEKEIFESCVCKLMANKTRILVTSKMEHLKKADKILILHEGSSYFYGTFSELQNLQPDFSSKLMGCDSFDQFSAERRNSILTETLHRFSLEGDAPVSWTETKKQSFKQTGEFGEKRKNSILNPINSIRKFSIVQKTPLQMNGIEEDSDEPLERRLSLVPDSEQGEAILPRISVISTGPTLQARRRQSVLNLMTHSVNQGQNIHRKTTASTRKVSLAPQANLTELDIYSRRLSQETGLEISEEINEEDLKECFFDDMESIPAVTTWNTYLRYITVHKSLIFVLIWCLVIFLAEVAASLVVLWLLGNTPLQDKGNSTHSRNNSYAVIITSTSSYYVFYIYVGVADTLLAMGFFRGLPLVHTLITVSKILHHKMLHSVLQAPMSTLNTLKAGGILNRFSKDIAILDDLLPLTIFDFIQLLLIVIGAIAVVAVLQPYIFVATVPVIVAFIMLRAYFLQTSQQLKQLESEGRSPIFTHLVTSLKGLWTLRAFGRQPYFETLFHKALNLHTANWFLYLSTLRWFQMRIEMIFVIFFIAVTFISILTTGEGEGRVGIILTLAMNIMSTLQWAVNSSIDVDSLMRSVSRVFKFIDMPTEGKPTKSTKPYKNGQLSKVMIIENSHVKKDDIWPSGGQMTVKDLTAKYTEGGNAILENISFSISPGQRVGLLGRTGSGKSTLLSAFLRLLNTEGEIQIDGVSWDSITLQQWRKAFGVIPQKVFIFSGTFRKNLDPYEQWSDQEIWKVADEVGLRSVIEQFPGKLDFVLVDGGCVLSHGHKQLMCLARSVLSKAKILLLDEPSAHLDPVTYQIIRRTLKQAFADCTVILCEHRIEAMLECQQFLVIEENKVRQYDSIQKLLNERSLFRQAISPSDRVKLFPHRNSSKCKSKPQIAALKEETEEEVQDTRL
How it was run: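 F508del/MF-HBE cells were preincubated 18–24 h at 37 °C in 20% human serum with corrector plus 18 μM tezacaftor and either 33 nM (concentration series) or 44 nM (1 μM single point) of the aminotrifluoromethyl triazatricyclic potentiator. Ussing chamber, Vhold=0 mV, 37 °C; forskolin 20 μM stimulation, CFTR ISC taken as inhibitor-cocktail-sensitive current.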

Emax ([2]; 18-24 hours): > 60% | pEC50 [2]: 4.52 to 5.52
Molecule: Cc1cccc(C)c1-c1cc2nc(n1)NS(=O)(=O)c1cccc(c1)C(=O)N(Cc1cnc3oc(C4(C)CCC4)cc3n1)[C@H](CC1(C)CC1)CO2 [Compound I-143, (11R)-6-(2,6-Dimethylphenyl)-12-[[6-(1-methylcyclobutyl)furo[2,3-b]pyrazin-2-yl]methyl]-11-[(1-methylcyclopropyl)methyl]-2,2-dioxo-9-oxa-2λ^6-thia-3,5,12,19-tetrazatricyclo[12.3.1.14,8]nonadeca-1(18),4(19),5,7,14,16-hexaen-13-one]
ring closure, yield after HPLC ([1]; from Cc1cccc(C)c1-c1cc(OC[C@@H](CC2(C)CC2)NCc2cnc3oc(C4(C)CCC4)cc3n2)nc(NS(=O)(=O)c2cccc(C(=O)O)c2)n1, 44.8 mM, 16.0 h): 56%

Emax ([2]; 18-24 hours): > 60% | pEC50 [2]: 5.52 to 6.00
Molecule: Cc1cccc(C)c1-c1cc2nc(n1)NS(=O)(=O)c1cccc(c1)C(=O)N(Cc1nc3cc(C4CC4)oc3cc1F)[C@H](CC1(C)CC1)CO2 [Compound I-197, (11R)-12-[(2-cyclopropyl-6-fluoro-furo[3,2-b]pyridin-5-yl)methyl]-6-(2,6-dimethylphenyl)-11-[(1-methylcyclopropyl)methyl]-2,2-dioxo-9-oxa-2λ^6-thia-3,5,12,19-tetrazatricyclo[12.3.1.14,8]nonadeca-1(18),4(19),5,7,14,16-hexaen-13-one]
ring closure, yield after HPLC ([1]; from Cc1cccc(C)c1-c1cc(OC[C@@H](CC2(C)CC2)NCc2nc3cc(C4CC4)oc3cc2F)nc(NS(=O)(=O)c2cccc(C(=O)O)c2)n1, 19.2 mM, 16.33 h): 62%

pEC50 [2]: > 6.00 | Emax [2]: > 60%
Molecule: Cc1cccc(C)c1-c1cc2nc(n1)NS(=O)(=O)c1cccc(c1)C(=O)N(Cc1cnc3c(F)c(C4(C)CC4)n(C)c3n1)[C@H](CC1(C)CC1)CO2 [IV-93, (11R)-6-(2,6-dimethylphenyl)-12-[[7-fluoro-5-methyl-6-(1-methylcyclopropyl)pyrrolo[2,3-b]pyrazin-3-yl]methyl]-11-[(1-methylcyclopropyl)methyl]-2,2-dioxo-9-oxa-2λ^6-thia-3,5,12,19-tetraza-tricyclo[12.3.1.14,8]nonadeca-1(18),4(19),5,7,14,16-hexaen-13-one]
ring closure, yield after HPLC ([1]; from Cc1cccc(C)c1-c1cc(OC[C@@H](CC2(C)CC2)NCc2cnc3c(F)c(C4(C)CC4)n(C)c3n2)nc(NS(=O)(=O)c2cccc(C(=O)O)c2)n1, 10.1 mM, 25.0 °C, 16.5 h): 20%

pEC50 [2]: > 6.00 | Emax [2]: > 60%
Molecule: CCc1cccc(CC)c1-c1cc2nc(n1)NS(=O)(=O)c1cccc(c1)C(=O)N(Cc1cnc3c(CCOC)c(C(C)(C)C)n(C)c3n1)[C@H](CC(C)C)CO2 [IV-92, (11R)-12-[[6-tert-butyl-7-(2-methoxyethyl)-5-methyl-pyrrolo[2,3-b]pyrazin-3-yl]methyl]-6-(2,6-diethylphenyl)-11-isobutyl-2,2-dioxo-9-oxa-2λ^6-thia-3,5,12,19-tetrazatricyclo[12.3.1.14,8]nonadeca-1(18),4(19),5,7,14,16-hexaen-13-one]
ring closure, yield after HPLC ([1]; from CCc1cccc(CC)c1-c1cc(OC[C@@H](CC(C)C)NCc2cnc3c(CCOC)c(C(C)(C)C)n(C)c3n2)nc(NS(=O)(=O)c2cccc(C(=O)O)c2)n1, 34.0 mM, 25.0 °C, 2.0 h): 22%

Emax ([2]; 18-24 hours): > 60% | pEC50 [2]: 5.52 to 6.00
Molecule: Cc1cccc(C)c1-c1cc2nc(n1)NS(=O)(=O)c1cccc(c1)C(=O)N(Cc1cnc3c(n1)C(=O)N(C(C)C)C3)[C@H](CC1(C)CC1)CO2 [III-21, (11R)-6-(2,6-Dimethylphenyl)-12-[(6-isopropyl-5-oxo-7H-pyrrolo[3,4-b]pyrazin-3-yl)methyl]-11-[(1-methylcyclopropyl)methyl]-2,2-dioxo-9-oxa-2λ^6-thia-3,5,12,19-tetrazatricyclo[12.3.1.14,8]nonadeca-1(18),4(19),5,7,14,16-hexaen-13-one]
ring closure, yield after HPLC ([1]; from Cc1cccc(C)c1-c1cc(OC[C@@H](CC2(C)CC2)NCc2cnc3c(n2)C(=O)N(C(C)C)C3)nc(NS(=O)(=O)c2cccc(C(=O)O)c2)n1, 9.0 mM, 16.5 h): 31%

pEC50 [2]: 5.52 to 6.00 | Emax [2]: > 60%
Molecule: Cc1cccc(C)c1-c1cc2nc(n1)NS(=O)(=O)c1cccc(c1)C(=O)N(Cc1cnc3sc(C4CC4)cc3n1)[C@H](CC13CC(C1)C3)CO2 [IV-42, (11R)-11-(1-bicyclo[1.1.1]pentanylmethyl)-12-[(6-cyclopropylthieno[2,3-b]pyrazin-2-yl)methyl]-6-(2,6-dimethylphenyl)-2,2-dioxo-9-oxa-2λ^6-thia-3,5,12,19-tetrazatricyclo[12.3.1.14,8]nonadeca-1(18),4(19),5,7,14,16-hexaen-13-one]
ring closure, yield after HPLC ([1]; from Cc1cccc(C)c1-c1cc(OC[C@@H](CC23CC(C2)C3)NCc2cnc3sc(C4CC4)cc3n2)nc(NS(=O)(=O)c2cccc(C(=O)O)c2)n1, 8.92 mM, 25.0 °C, 18.0 h): 54%

pEC50 [2]: > 6.00 | Emax [2]: > 60%
Molecule: Cc1cccc(C)c1-c1cc2nc(n1)NS(=O)(=O)c1cccc(c1)C(=O)N(Cc1cnc3cc(C(C)(C)C(F)(F)F)n(C)c3n1)[C@H](CC13CC(C1)C3)CO2 [IV-102, (11R)-11-(1-bicyclo[1.1.1]pentanylmethyl)-6-(2,6-dimethylphenyl)-12-[[5-methyl-6-(2,2,2-trifluoro-1,1-dimethyl-ethyl)pyrrolo[2,3-b]pyrazin-3-yl]methyl]-2,2-dioxo-9-oxa-2λ^6-thia-3,5,12,19-tetrazatricyclo[12.3.1.14,8]nonadeca-1(18),4(19),5,7,14,16-hexaen-13-one]
ring closure, yield after HPLC ([1]; from Cc1cccc(C)c1-c1cc(OC[C@@H](CC23CC(C2)C3)NCc2cnc3cc(C(C)(C)C(F)(F)F)n(C)c3n2)nc(NS(=O)(=O)c2cccc(C(=O)O)c2)n1, 9.8 mM, 25.0 °C, 4.0 h): 65%

Molecule: Cc1cccc(C)c1-c1cc2nc(n1)NS(=O)(=O)c1cccc(c1)C(=O)N(Cc1cnc3oc(C4CC4)cc3n1)C(CCC1(C)CC1)CO2 (single isomer, unassigned; isomer 1)
ring closure, yield after HPLC ([1]; from Cc1cccc(C)c1-c1cc(OCC(CCC2(C)CC2)NCc2cnc3oc(C4CC4)cc3n2)nc(NS(=O)(=O)c2cccc(C(=O)O)c2)n1, 12.8 mM, 24.5 h): 48%

Molecule: (5P,11R)-7-methyl-6-[2-methyl-6-(2-methylpropyl)phenyl]-12-({5-methyl-6-[1-(trifluoromethyl)cyclopropyl]-5H-pyrrolo[2,3-b]pyrazin-3-yl}methyl)-11-[(propan-2-yloxy)methyl]-9-oxa-2λ^6-thia-3,5,12,19-tetraazatricyclo[12.3.1.1∧{4,8}]nonadeca-1(18),4(19),5,7,14,16-hexaene-2,2,13-trione
ring closure, yield after HPLC ([1]; 13.9 mM, 25.0 °C): 65%

Molecule: Cc1cccc(C)c1-c1cc2nc(n1)NS(=N)(=O)c1cccc(c1)C(=O)N(Cc1cnc3oc(C4CC4)cc3n1)[C@H](CC(C)(C)C)CO2 (single isomer, unassigned; isomer a)
ring closure, yield after HPLC ([1]; from 3-[[[4-[(2R)-2-[(6-Cyclopropylfuro[2,3-b]pyrazin-2-yl)methylamino]-4,4-dimethyl-pentoxy]-6-(2,6-dimethylphenyl)pyrimidin-2-yl]amino]sulfonimidoyl]benzoic acid (hydrochloride salt) (isomer A), 14.2 mM): 23%

pEC50 [2]: 4.52 to 5.52 | Emax [2]: > 60%
Molecule: Cc1cccc(C)c1-c1cc2nc(n1)NS(=O)(=O)c1cccc(c1)C(=O)N(Cc1cnc3cc(C(C)(C)C)[nH]c3n1)[C@H](CC1(C)CC1)CO2 [IV-54, (11R)-12-[(6-tert-butyl-5H-pyrrolo[2,3-b]pyrazin-3-yl)methyl]-6-(2,6-dimethylphenyl)-11-[(1-methylcyclopropyl)methyl]-2,2-dioxo-9-oxa-2λ^6-thia-3,5,12,19-tetrazatricyclo[12.3.1.14,8]nonadeca-1(18),4(19),5,7,14,16-hexaen-13-one]
ring closure, yield after HPLC ([1]; from Cc1cccc(C)c1-c1cc(OC[C@@H](CC2(C)CC2)NCc2cnc3cc(C(C)(C)C)[nH]c3n2)nc(NS(=O)(=O)c2cccc(C(=O)O)c2)n1, 9.99 mM, 25.0 °C, 5.5 h): 44%

Molecule: Cc1cccc(C)c1-c1cc2nc(n1)NS(=O)(=O)c1cccc(c1)C(=O)N(Cc1cnc3oc(C(C)C)cc3n1)C(CCC(C)(C)F)CO2 (stereo not shown)
ring closure, yield after HPLC ([1]; from Cc1cccc(C)c1-c1cc(OCC(CCC(C)(C)F)NCc2cnc3oc(C(C)C)cc3n2)nc(NS(=O)(=O)c2cccc(C(=O)O)c2)n1, 35.1 mM, 16.0 h): 65%

Molecule: (5P,11R)-12-({6-tert-butyl-5-methyl-5H-pyrrolo[2,3-b]pyrazin-3-yl}methyl)-11-(2,2-dimethylpropyl)-7-methyl-6-[2-methyl-6-(2-methylpropyl)phenyl]-9-oxa-2λ^6-thia-3,5,12,19-tetraazatricyclo[12.3.1.1∧{4,8}]nonadeca-1(17),4(19),5,7,14(18),15-hexaene-2,2,13-trione
ring closure, yield after HPLC ([1]; 14.0 mM): 61%

Molecule: Cc1cccc(C)c1-c1cc2nc(n1)NS(=O)(=O)c1cccc(c1)C(=O)N(Cc1cnc3cc(C(C)(C)C)n(C)c3n1)[C@H](C1CCCO1)CO2 (single isomer, unassigned; isomer b)
ring closure, yield after HPLC ([1]; from Cc1cccc(C)c1-c1cc(OC[C@H](NCc2cnc3cc(C(C)(C)C)n(C)c3n2)C2CCCO2)nc(NS(=O)(=O)c2cccc(C(=O)O)c2)n1, 15.5 mM, 25.0 °C, 20.0 h): 55%

Molecule: Cc1cccc(C)c1-c1cc2nc(n1)NS(=O)(=O)c1cccc(c1)C(=O)N(Cc1ccn3nc(C(C)C)cc3n1)[C@H](CC1(C)CC1)CO2
ring closure, yield after HPLC ([1]; from Cc1cccc(C)c1-c1cc(OC[C@@H](CC2(C)CC2)NCc2ccn3nc(C(C)C)cc3n2)nc(NS(=O)(=O)c2cccc(C(=O)O)c2)n1, 9.91 mM, 25.0 °C, 16.5 h): 43%
